Test results as given in US20110236326A1, “Skin Whitener” (Cognis IP Management GmbH, priority 2008, published 2011).
One block for each compound: values may come before it.

How the values were obtained:
[1] = system: Melanocytes (B16 cell line); assay: Melanogenesis inhibition assay (melanin level and cellular proteins); format: cell-based; details: 3 days incubation; for Melanin level: B16 cells, OD 475 nm
Protocol: Melanocytes (B16 cell line) are inoculated in standard medium of cell culture with fetal calf serum (FCS). After an incubation of 3 days at 37° C. and CO2=5%, growth medium is exchanged for standard medium with a range of concentrations for the compound to be tested and a control without ingredient. After an incubation of 3 days, the level of melanin is measured by recording the optical density at 475 nm. After washing the cells by a balanced salt, and homogenization in a solution of 0.1 M NaOH, the number of viable cells is determined by the level of cellular proteins (Bradford's method).
The results are expressed in % against control (cell culture medium without compound) as a mean on 1 to 3 assays, each in triplicate.

mushroom tyrosinase = assay: Mushroom tyrosinase inhibition assay; format: biochemical; details: DOPA substrate, pH 6.8
Protocol: In the melanin biosynthesis pathway, tyrosinase is a key enzyme catalyzing the initial steps: the oxidation of tyrosine into dihydroxyphenylalanine (DOPA) and of DOPA into Dopaquinone. In phosphate buffer at pH 6.8, DOPA is mixed with a range of concentration of the compound to be tested, and a control without compound. After addition of mushroom tyrosinase, oxidation of DOPA is recorded by measuring OD at 475 nm during 30 sec. The % of tyrosinase inhibition is expressed in % against control as a mean of 2-3 assays.

SMILES: CN(N)C(=O)Nc1ccccc1 [1-amino-1-methyl-3-phenylurea]
- Melanin level ([1]; dose 0.001 % (w/v)): 92 %/control
- Melanin level ([1]; dose 0.003 % (w/v)): 88 %/control
- Protein level (rate of cellular proteins, viable cells by Bradford's method) ([1]; dose 0.001 % (w/v)): 102 %/control
- Protein level (rate of cellular proteins, viable cells by Bradford's method) ([1]; dose 0.003 % (w/v)): 99 %/control

SMILES: Cc1ccc(NC(=O)NN)c(C)c1 [1-amino-3-(2,4-dimethylphenyl)urea]
- Melanin level ([1]; dose 0.001 % (w/v)): 98 %/control
- Melanin level ([1]; dose 0.003 % (w/v)): 87 %/control
- Protein level (rate of cellular proteins, viable cells by Bradford's method) ([1]; dose 0.001 % (w/v)): 103 %/control
- Protein level (rate of cellular proteins, viable cells by Bradford's method) ([1]; dose 0.003 % (w/v)): 99 %/control

- % of tyrosinase inhibition (mushroom tyrosinase; dose 0.0001 % (w/v)): 31%
- % of tyrosinase inhibition (mushroom tyrosinase; dose 0.001 % (w/v)): 55%
- % of tyrosinase inhibition (mushroom tyrosinase; dose 0.01 % (w/v)): 89%
SMILES: NNC(=O)Nc1ccccc1 [1-amino-3-phenylurea]
- Melanin level ([1]; dose 0.001 % (w/v)): 79 %/control
- Melanin level ([1]; dose 0.003 % (w/v)): 47 %/control
- Melanin level ([1]; dose 0.01 % (w/v)): 19 %/control
- Protein level (rate of cellular proteins, viable cells by Bradford's method) ([1]; dose 0.001 % (w/v)): 95 %/control
- Protein level (rate of cellular proteins, viable cells by Bradford's method) ([1]; dose 0.003 % (w/v)): 94 %/control
- Protein level (rate of cellular proteins, viable cells by Bradford's method) ([1]; dose 0.01 % (w/v)): 104 %/control
